According to patent publication US11986482B2, “Method of promoting antitumor or anti-cancer immunity” (City University of Hong Kong, priority 2021, dated 2024):
“Also recorded” adds a separate entry of the source.

How the values were obtained:
HeLa cells = assay: Extracellular vesicle concentration, Nanosight nanoparticle analyzer, HeLa cells; assay type: cell-based; conditions: 1 μM, 24 h
Procedure: (§1) It has previously been shown that interfering with endosomal trafficking promotes exosome secretion. Moreover, PD-L1 has been reported to be enriched in exosomes and secreted outside the cell. Thus, inventors speculate that 6J1 may induce the secretion of the PD-L1 trapped in the endosomal compartments via exosomes. To determine whether 6J1 may induce the secretion of PD-L1 via exosomes, HeLa cells are treated with or without 6J1 (1 μM) for 24 h. The supernatant is collected. Inventors purify the exosomes from the supernatant of HeLa cells by sequential centrifugation. The concentration of extracellular vesicle is determined using a Nanosight nanoparticle analyzer. And HeLa cells are treated with or without 6J1 (1 μM) for 48 h. The cell and supernatant are collected for Western Blot analysis. […] Moreover, the activity of Rab27a in HeLa cells treated with or without 6J1 (1 μM) is examined with a GST-SHD pulldown assay.
Moreover, ATG5- or LC3-knockout HeLa cells are treated with or without 6J1 (1 μM) for 24 h. The supernatant is collected, and the concentration of the extracellular vesicle is determined using a Nanosight nanoparticle analyzer. The exosomes are also collected and subjected to western blot analysis of the EVs marker and PD-L1 in FIG. 7a. The live cells are also labeled with an anti-PD-L1 antibody in FIG. 7b and subjected to flow cytometry analysis in FIG. 7c. […] In addition, inventors assess whether other autophagy-related genes, e.g., ATG4B, ATG7, Beclin1, and Vps34 are involved in 6J1-mediated exosomal PD-L1 secretion. ATG4B-, ATG7-, Beclin1-, or VPS34-knockout HeLa cells are treated with or without 6J1 (1 μM) for 24 h. The supernatant is collected, and the concentration of extracellular vesicle is determined using a Nanosight nanoparticle analyzer. The exosomes are also collected and subjected to western blot analysis of the EVs marker and PD-L1 in FIG. 7d. The live cells are also labeled with an anti-PD-L1 antibody and subjected to flow cytometry analysis in FIG. 7e.

B16-F10 cells = assay: B16-F10 melanoma model in C57BL/6J mice; assay type: in vivo, mouse; conditions: 30 mg/kg, daily, oral gavage, 4 weeks
Procedure: Inventors also examine the anti-cancer effect of 6J1 in a melanoma xenograft mouse model, by the subcutaneous injection of B16-F10 cells in syngeneic C57BL mice. B16-F10 cells are subcutaneously injected into the flank of female C57BL/6J mice. The mice are randomly divided (n=6 per group). They are treated with either buffer or 6J1 (30 mg/kg, daily, oral gavage) after tumors reach around 5 mm for 4 weeks. After 4 weeks, the primary tumors are collected for analysis. […] In addition, a flow cytometry-based quantification of the levels of plasma membrane PD-L1 in the primary tumor is performed in FIG. 15e. […] In B16-F10 tumors, fold change of CD3+CD8+ T-cell populations, and percentage of intracellular IFN-γ in the isolated tumor-infiltrating lymphocytes (TILs) are determined by flow cytometry analysis in FIGS. 15f and 15g.

[1] = Subchronic toxicity in Balb/C mice, 4 weeks oral; assay type: in vivo, mouse; conditions: 30 mg/kg per day
Procedure: Last, inventors investigate the in vivo toxicity of 6J1 in mice. 6-week-old Balb/C mice are treated with […] (PEG400/Ethanol/tween80, 1:1:1) or 6J1 (30 mg/kg, per day) via oral route for 4 weeks. Clinical observations, e.g., food consumption, body weight changes, and ophthalmic exams, are performed every three days. Tissue weight index (tissue weight/body weight×100%) are measured. […] 6J1 has no effects on mouse weight gain and weights of various organs (FIGS. 18a and 18b). At the end of experiment, the blood is collected from mice in each group for AST, ALT, and ALP measurement. The mice are then sacrificed, and the major organs are isolated, examined, and subjected to H&E staining.

PD-L1 = PD-L1 colocalization imaging in PD-L1-GFP HeLa cells; assay type: cell-based; conditions: 1 μM, 24 h
Procedure: Next, inventors assess if 6J1 can compromise PD-L1 trafficking. PDL1-GFP stable expressing HeLa cells are treated with or without 6J1 (1 μM) for 24 h. Cells are fixed and stained with Rab5 or EEA1. Their quantifications of the colocalization are shown in FIGS. 4d and 4e, respectively. […] Inventors thus further quantify cell membrane PD-L1 levels in live cells treated with or without 6J1 by flow cytometry or confocal imaging.
as §1
HeLa cells are treated with or without 6J1. After 6 h, cells are collected for western blot analysis of LC3 and p62. […] In addition, ATG5-knockout HeLa cells are transfected with PD-L1-GFP and LC3-RFP, and then treated with or without 6J1 (1 μM) for 24 h. Cells are fixed and imaged. […] Furthermore, LC3B-knockout HeLa cells are transfected with PD-L1-GFP, and then treated with or without 6J1 (1 μM) for 24 h. Cells are fixed and stained with antibodies against Rab5 (FIG. 6d) or Rab27a (FIG. 6e).

4T1 cells = assay: T cell-mediated tumor cell killing assay; assay type: cell-based, mouse; conditions: 6J1 (1 µM) per FIG. 8d legend, CCK8 assay
[2] = test system: 4T1 mouse mammary carcinoma; assay: Orthotopic 4T1 mammary carcinoma model in syngeneic Balb/c mice; assay type: in vivo; conditions: oral gavage, daily
Procedure: To determine whether 6J1 can promote anti-cancer immunity in vivo, 4T1 cells are orthotopically transplanted into syngeneic Balb/c mice. The mice are randomly divided into three groups (n=7 per group) and treated with either buffer or 6J1 (15 or 30 mg/kg, daily) via oral gavage. Tumor volume and body weight of mice are measured at the indicated time point. After the tumor reaches the indicated size, the mice are treated with 6J1 (via oral gavage) at different doses (15 mg/kg or 30 mg/kg) daily for 4 weeks. […] The effective dosages of 6J1 in vivo can range from about 0.1 mg/kg to about 300 mg/kg; or from about 1 mg/kg to about 200 mg/kg; or from about 3 mg/kg to about 100 mg/kg, taking into account, for example, activity and toxicity

[3] = isolated tumor-infiltrating lymphocytes

In the case of `OCCOCCN(c1ccccc1)c1nc(N/N=C/c2cccc(I)c2)nc(N2CCOCC2)n1` [Compound 6J1], the “6J1-induced EVs secretion” value (HeLa cells; ATG4B-, ATG7-, Beclin1- or VPS34-knockout HeLa cells) is reported as “fails to abolish”, the “6J1-induced EVs secretion” value (HeLa cells; ATG5- or LC3B-knockout HeLa cells) is reported as “Neither ATG5 nor LC3B knockout impairs” and the “exosome secretion (extracellular vesicle concentration)” value (HeLa cells; HeLa cells) is reported as “dramatically induces exosome secretion”. The “animal's body weight” value (B16-F10 cells) was “without affecting the animal's body weight”, the “expression of IFN-γ in tumor-infiltrating lymphocytes” value (B16-F10 cells) was “only subtly increases the expression of IFN-γ” and the “growth of B16-F10 tumors” value (B16-F10 cells) was “markedly inhibits the growth of B16-F10 tumors”. For the same compound, the “levels of PD-L1 at the cell surface of the primary tumors” value (B16-F10 cells) was “significantly decreases the levels of PD-L1 at the cell surface of the primary tumors”, the “percentage of tumor-infiltrating CD8+ T cell populations” value (B16-F10 cells) was “markedly increases the percentage of tumor-infiltrating CD8+ T cell populations” and the behavior [1] was “no signs of behavior abnormality”. For the same compound, the “liver function test (AST, ALT, ALP in blood)” value [1] was “no apparent changes in liver function test”, the mouse weight gain [1] was “no effects” and the “pathological changes in major organs (H&E staining)” value [1] was “no signs of pathological changes in major organs”. For the same compound, the “weights of various organs (tissue weight index)” value [1] was “no effects”, the “6J1-induced PD-L1 puncta” value (PD-L1; ATG5-knockout HeLa cells) was “no effect on 6J1-induced PD-L1 puncta” and the “PD-L1/LC3B colocalization in 6J1-treated cells” value (PD-L1; ATG5-knockout HeLa cells) was “abolishes this colocalization between PD-L1 and LC3B”. The “6J1-induced PD-L1 puncta and PD-L1 colocalization with RAB5 or RAB27A” value (PD-L1; LC3B-knockout HeLa cells) was “LC3B knockout does not affect”, the “accumulation of PD-L1 in vesicles colocalized with early endosome markers EEA1 and RAB5” value (PD-L1; PD-L1-GFP HeLa cells) was “clearly induces the accumulation of PD-L1 within vesicle-like structures in the cytoplasm” and the “colocalization between PD-L1 and RAB11 (recycling endosome marker)” value (PD-L1; PD-L1-GFP HeLa cells) was “markedly decreases the colocalization between PD-L1 and RAB11”. For the same compound, the “colocalization of PD-L1 with exosomal markers TSG101, CD63, Rab27A” value (PD-L1; PD-L1-GFP HeLa cells) was “significantly induces the colocalization of PD-L1 with the exosomal markers”, the “colocalization of PD-L1-containing vesicles with LC3B puncta” value (PD-L1; control HeLa cells with PD-L1-GFP and LC3-RFP) was “strongly colocalized with LC3B puncta” and the “sensitivity of 4T1 cells to pre-activated T cell-mediated cytolysis” value (4T1 cells) was “more sensitive to pre-activated T cell-mediated cytolysis”. For the same compound, the “cell surface expression of PD-L1 in the primary tumors” value ([2]; 30 mg/kg) was “down-regulated”, the tumor growth ([2]; 30 mg/kg, 4 weeks) was “significantly decreases the tumor growth” and the “body weight of mice” value ([2]; 15 or 30 mg/kg, 4 weeks) was “does not change the body weight of mice”. The “expression of IFN-γ in CD8+ T cells” value [2, 3] was “little effect” and the “tumor-infiltrating CD8+ T cell populations” value [2, 3] was “significantly increases the tumor infiltrating CD8+ T cell populations; also recorded: significantly increases the tumor-infiltrating CD8+ T cell populations”.
